In assay [1] the target is T1, indoleamine 2,3-dioxygenase (IDO) (Homo sapiens, UniProt P14902).
T1 construct: endogenous in cells; host or cells: HeLa (ATCC CCL-2), induced with IFNγ at 25 ng/mL
Kind of assay: HeLa cell-based indoleamine 2,3-dioxygenase (IDO) assay, kynurenine production. To be noted: HeLa cells, IFNγ 25 ng/mL, 48 hour incubation, kynurenine absorbance at 480 nm. The procedure: Assessment of Inhibitor Activity in HeLa Cell-Based Indoleamine 2,3-dioxygenase (IDO) Assay:
HeLa (ATCC® CCL-2) cells were obtained from the ATCC® and cultured in Dulbecco's Modified Eagle Medium supplemented with 4.5 g/L glucose, […] (#10-013-CV, Corning), 2 mM L-alanyl-L-glutamine dipeptide (#35050-061, Gibco), 100U/mL penicillin, 100 μg/mL streptomycin (#SV30010, HyClone) and 10% fetal bovine serum (#SH30071.03 HyClone). Cells were maintained in a humidified incubator at 37° C. in 5% CO2.
IDO activity was assessed as a function of kynurenine production as follows: HeLa cells were seeded in a 96-well culture plate at a density of 5,000 cells/well and allowed to equilibrate overnight. After 24 hours, the media was aspirated and replaced with media containing IFNγ (#285-IF/CF, R&D Systems) at a final concentration of 25 ng/mL. A serial dilution of each test compound was added to the cells in a total volume of 200 μL of culture medium. After a further 48 hour incubation, 170 μL of supernatant was transferred from each well to a fresh 96-well plate. 12.1 μL of 6.1N trichloroacetic acid (#T0699, Sigma-Aldrich) was added to each well and mixed, followed by incubation at 65° C. for 20 minutes to hydrolyze N-formylkynurenine, the product of indoleamine 2,3-dioxygenase, to kynurenine. The reaction mixture was then centrifuged for 10 mins at 500×g to sediment the precipitate. 100 μL of the supernatant was transferred from each well to a fresh 96-well plate. 100 μl of 2% (w/v) p-dimethylaminobenzaldehyde (#15647-7, Sigma-Aldrich) in acetic acid (#A6283, Sigma-Aldrich) was added to each well mixed and incubated at room temperature for 20 inns. Kynurenine concentrations were determined by measuring absorbance at 480 nm and calibrating against an L-kynurenine (#K8625, Sigma-Aldrich) standard curve using a SPECTRAMAX® M2e microplate reader (Molecular Devices). The percentage activity at each inhibitor concentration was determined and IC50 values assessed using nonlinear regression.

Another assay has as its target T2, human IDO1 (Homo sapiens, UniProt P14902).
T2 construct: expressed in transfected cells
Put plainly: human IDO1/HEK293 cell IDO inhibition assay. The assay is classed as cell-based. To be noted: HEK293 cells stably expressing human IDO1, 20 hours incubation, absorbance at 490 nm; read-out: IDO1 HEK Human IC50. The procedure:
HEK293 cells were transfected with a pCDNA-based mammalian expression vector harboring human IDO1 cDNA (NM 002164.2) by electroporation. They were cultured in medium (DMEM with 10% FBS) containing 1 mg/ml G418 for two weeks. Clones of HEK293 cells that stably expressed human IDO1 protein were selected and expanded for IDO inhibition assay.
The human IDO1/HEK293 cells were seeded at 10,000 cells per 50 μL per well with RPMI/phenol red free media contains 10% FBS in a 384-well black wall clear bottom tissue culture plate (Matrix Technologies LLC) 100 nL of certain concentration of compound was then added to each well using ECHO liquid handling systems. The cells were incubated for 20 hours in 37° C. incubator with 5% CO2.
The compound treatments were stopped by adding trichloroacetic acid (Sigma-Aldrich) to a final concentration at 0.2%. The cell plate was further incubated at 50° C. for 30 minute. The equal volume supernatant (20 μL) and 0.2% (w/v) Ehrlich reagent (4-dimethylaminobenzaldehyde, Sigma-Aldrich) in glacial acetic acid were mixed in a new clear bottom 384-well plate. This plate was then incubated at room temperature for 30 minute. The absorbance at 490 nm was measured on Envision plate reader.
Compound IC50 values were calculated using the counts of 500 nM of a reference standard treatment as one hundred percent inhibition, and counts of no compound but DMSO treatment as zero percent inhibition.

pIC50: −log10 of the molar value.

T1 sequence (P14902 whole entry): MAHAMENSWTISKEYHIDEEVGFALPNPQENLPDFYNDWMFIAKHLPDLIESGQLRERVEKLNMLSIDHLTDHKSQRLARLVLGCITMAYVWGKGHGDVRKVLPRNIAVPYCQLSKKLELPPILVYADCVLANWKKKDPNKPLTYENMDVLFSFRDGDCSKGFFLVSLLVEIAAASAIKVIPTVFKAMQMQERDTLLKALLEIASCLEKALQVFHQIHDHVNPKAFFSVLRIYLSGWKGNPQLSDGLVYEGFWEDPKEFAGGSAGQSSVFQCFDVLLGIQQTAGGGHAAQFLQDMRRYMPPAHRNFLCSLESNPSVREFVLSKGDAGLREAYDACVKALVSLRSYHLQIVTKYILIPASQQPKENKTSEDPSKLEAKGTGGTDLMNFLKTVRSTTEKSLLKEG
T2 sequence (P14902 whole entry): as above

Consider `CC(NC(=O)C12CCC(Cl)(CC1)CC2)[C@H]1CC[C@]2(CC1)OCc1ccccc12` (mixture of isomers) [Example 13, rac-N-(1-((1s,4s)-3′H-Spiro[cyclohexane-1,1′-isobenzofuran]-4-yl)ethyl)-4-chlorobicyclo[2.2.2]octane-1-carboxamide], for which, in assay [1], the pIC50 is 6.20.
Same read-out and setting: under `CC(C(=O)NC12CC3CC(CC(C3)C1)C2)[C@H]1CC[C@@]2(CC1)OCc1ccccc12` (mixture of isomers) [Example 28, rac-N—((1R,3S)-Adamantan-1-yl)-2-((1R,4r)-3′H-spiro[cyclohexane-1,1′-isobenzofuran]-4-yl)propanamide] stands 6.70.
As for `O=C(C[C@H]1CC[C@@]2(CC1)OCc1ccccc12)Nc1ccc(Cl)cc1` [Example 1, N-(4-Chlorophenyl)-2-((1r,4r)-3′H-spiro[cyclohexane-1,1′-isobenzofuran]-4-yl)acetamide], the negative-log IC50 (pIC50) is 6.94 in assay [1] and 7.00 at human IDO1.
In turn, `O=C(C[C@H]1CC[C@@]2(CC1)OCc1ccccc12)NC12CC3CC(CC(C3)C1)C2` [Example 2, N-((1R,3S)-Adamantan-1-yl)-2-((1R,4r)-3′H-spiro[cyclohexane-1,1′-isobenzofuran]-4-yl)acetamide] had a pIC50 in assay [1] of 6.72.
With `O=C(C[C@H]1CC[C@]2(CC1)OCc1ccccc12)Nc1ccc(Cl)cc1` [Example 3, N-(4-Chlorophenyl)-2-((1s,4s)-3′H-spiro[cyclohexane-1,1′-isobenzofuran]-4-yl)acetamide], the figures for the negative logarithm of the IC50 (pIC50) (in assay [1]; on human IDO1) were 6.66 and 6.29, respectively.
Turning to `C[C@H](C(=O)Nc1ccc(Cl)cc1)[C@H]1CC[C@@]2(CC1)COc1ccccc12` [Example 15, (S)—N-(4-Chlorophenyl)-2-((1'S,4′r)-2H-spiro[benzofuran-3,1′-cyclohexan]-4′-yl)propanamide], the results for the pIC50 (in assay [1]; at human IDO1) were 7.70 and 7.77, respectively.

As usually defined, the pIC50 is the negative decadic logarithm of the IC50, by convention in mol/L.

Source of the values: patent publication US11203592B2, “Inhibitors of indoleamine 2,3-dioxygenase and methods of their use” (BRISTOL-MYERS SQUIBB COMPANY, priority 2017, dated 2021).
